Data as given in patent publication US9908895B2, “Tricyclic fused thiophene derivatives as JAK inhibitors” (Incyte Corporation, priority 2012, dated 2018).

Target: human JAK1 (Homo sapiens, UniProt P23458)
Experiment: In vitro JAK kinase assay (HTRF), JAK1
Type: biochemical
Details: 1 mM ATP; read-out: JAK1 IC50
Protocol: (§1) Compounds herein were tested for inhibitory activity of JAK targets according to the following in vitro assay described in Park et al., Analytical Biochemistry 1999, 269, 94-104. The catalytic domains of human JAK1 (a.a. 837-1142), JAK2 (a.a. 828-1132) and JAK3 (a.a. 781-1124) were expressed using baculovirus in insect cells and purified. The catalytic activity of JAK1, JAK2 or JAK3 was assayed by measuring the phosphorylation of a biotinylated peptide. The phosphorylated peptide was detected by homogenous time resolved fluorescence (HTRF). IC50s of compounds were measured for each kinase in the 40 μL reactions that contain the enzyme, ATP and 500 nM peptide in 50 mM Tris (pH 7.8) buffer with 100 mM NaCl, 5 mM DTT, and 0.1 mg/mL (0.01%) BSA. For the 1 mM IC50 measurements, ATP concentration in the reactions was 1 mM. Reactions were carried out at room temperature for 1 hour and then stopped with 20 μL 45 mM EDTA, 300 nM SA-APC, 6 nM Eu-Py20 in assay buffer (Perkin Elmer, Boston, Mass.). Binding to the Europium labeled antibody took place for 40 minutes and HTRF signal was measured on a PHERA star plate reader (BMG, Cary, N.C.). The Example compounds were each tested in the Example A assay (see Table 1 for data for the compounds of the examples as tested by the assay of Example A at 1 mM ATP).

IC50 | Molecule
< 1000 nM | C[C@@H](O)c1nc2cnc3ccsc3c2n1C1CCNCC1F (single isomer, unassigned) [9 (2nd peak)]

Same assay, conditions: JAK1 IC50 (nM), 1 mM ATP

Molecule | IC50
Cc1nc2cnc3ccsc3c2n1[C@@H]1CC[C@@H](CC#N)[C@H](O)C1.Cc1nc2cnc3ccsc3c2n1[C@H]1CC[C@H](CC#N)[C@@H](O)C1 (mixture of isomers) [41 (second peak), [(1R,2S,4S)-4-(2-Methyl-1H-imidazo[4,5-d]thieno[3,2-b]pyridin-1-yl)-2-hydroxycyclohexyl]acetonitrile and [(1S,2R,4R)-4-(2-methyl-1H-imidazo[4,5-d]thieno[3,2-b]pyridin-1-yl)-2-hydroxycyclohexyl]acetonitrile] | > 2000 nM

System: human JAK1
Experiment: In vitro JAK kinase assay (HTRF), JAK1
Type: biochemical
Details: ratio of JAK2 IC50 to JAK1 IC50 at 1 mM ATP
Protocol: as §1

Molecule | JAK2/JAK1
C[C@@H](O)c1nc2cnc3ccsc3c2n1C1CCNCC1F (single isomer, unassigned) [9 (2nd peak)] | >10
CC(F)c1nc2cnc3ccsc3c2n1[C@H]1CC[C@H](CC#N)OC1 (stereo partly drawn) [Example 71, {(2R,5S)-5-[2-(1-Fluoroethyl)-1H-imidazo[4,5-d]thieno[3,2-b]pyridin-1-yl]tetrahydro-2H-pyran-2-yl}acetonitrile] | >10
N#CCc1nc2cnc3ccsc3c2n1[C@H]1CC[C@H](CC#N)OC1 [Example 73, {(2R,5S)-5-[2-(Cyanomethyl)-1H-imidazo[4,5-d]thieno[3,2-b]pyridin-1-yl]tetrahydro-2H-pyran-2-yl}acetonitrile] | >10
N#CCc1nc2cnc3ccsc3c2n1[C@H]1CC[C@@H](CC#N)OC1 [Example 74, {(2S,5S)-5-[2-(Cyanomethyl)-1H-imidazo[4,5-d]thieno[3,2-b]pyridin-1-yl]tetrahydro-2H-pyran-2-yl}acetonitrile] | >10
C[C@@H](O)c1nc2cnc3ccsc3c2n1[C@H]1CC[C@H](CNS(C)(=O)=O)CC1 [Example 80, N-[(trans-4-{2-[(1R)-1-Hydroxyethyl]-1H-imidazo[4,5-d]thieno[3,2-b]pyridin-1-yl}cyclohexyl)methyl]methanesulfonamide] | >10
COC(=O)NC[C@H]1CC[C@H](n2c(CC#N)nc3cnc4ccsc4c32)CC1 [Example 86, Methyl({trans-4-[2-(cyanomethyl)-1H-imidazo[4,5-d]thieno[3,2-b]pyridin-1-yl]cyclohexyl}methyl)carbamate] | >10
CCOC(=O)NC[C@H]1CC[C@H](n2c(CC#N)nc3cnc4ccsc4c32)CC1 [Example 87, Ethyl({trans-4-[2-(cyanomethyl)-1H-imidazo[4,5-d]thieno[3,2-b]pyridin-1-yl]cyclohexyl}methyl)carbamate] | >10
CC(C)OC(=O)NC[C@H]1CC[C@H](n2c(CC#N)nc3cnc4ccsc4c32)CC1 [Example 88, Isopropyl({trans-4-[2-(cyanomethyl)-1H-imidazo[4,5-d]thieno[3,2-b]pyridin-1-yl]cyclohexyl}methyl)carbamate] | >10
CCC(=O)NC[C@H]1CC[C@H](n2c(CC#N)nc3cnc4ccsc4c32)CC1 [Example 89, N-({trans-4-[2-(Cyanomethyl)-1H-imidazo[4,5-d]thieno[3,2-b]pyridin-1-yl]cyclohexyl}methyl)propanamide] | >10
N#CCc1nc2cnc3ccsc3c2n1[C@H]1CC[C@H](CC#N)CC1 [Example 90, {1-[trans-4-(Cyanomethyl)cyclohexyl]-1H-imidazo[4,5-d]thieno[3,2-b]pyridin-2-yl}acetonitrile] | >10
N#CC[C@H]1CC[C@H](n2c(CO)nc3cnc4ccsc4c32)CO1 [Example 91, {(2R,5S)-5-[2-(Hydroxymethyl)-1H-imidazo[4,5-d]thieno[3,2-b]pyridin-1-yl]tetrahydro-2H-pyran-2-yl}acetonitrile] | >10
((1R,2R,4S)-2-Hydroxy-4-{2-[(1R)-1-hydroxyethyl]-1H-imidazo[4,5-d]thieno[3,2-b]pyridin-1-yl}cyclohexyl)acetonitrile and ((1S,2S,4R)-2-hydroxy-4-{2-[(1R)-1-hydroxyethyl]-1H-imidazo[4,5-d]thieno[3,2-b]pyridin-1-yl}cyclohexyl)acetonitrile [36 (first peak)] | >10
((1R,2R,4S)-2-Hydroxy-4-{2-[(1R)-1-hydroxyethyl]-1H-imidazo[4,5-d]thieno[3,2-b]pyridin-1-yl}cyclohexyl)acetonitrile and ((1S,2S,4R)-2-hydroxy-4-{2-[(1R)-1-hydroxyethyl]-1H-imidazo[4,5-d]thieno[3,2-b]pyridin-1-yl}cyclohexyl)acetonitrile [36 (second peak)] | >10
((1R,2S,4S)-2-Hydroxy-4-{2-[(1R)-1-hydroxyethyl]-1H-imidazo[4,5-d]thieno[3,2-b]pyridin-1-yl}cyclohexyl)acetonitrile trifluoacetate and ((1S,2R,4R)-2-hydroxy-4-{2-[(1R)-1-hydroxyethyl]-1H-imidazo[4,5-d]thieno[3,2-b]pyridin-1-yl}cyclohexyl)acetonitrile trifluoacetate [37 (first peak)] | >10
((1R,2S,4S)-2-Hydroxy-4-{2-[(1R)-1-hydroxyethyl]-1H-imidazo[4,5-d]thieno[3,2-b]pyridin-1-yl}cyclohexyl)acetonitrile trifluoacetate and ((1S,2R,4R)-2-hydroxy-4-{2-[(1R)-1-hydroxyethyl]-1H-imidazo[4,5-d]thieno[3,2-b]pyridin-1-yl}cyclohexyl)acetonitrile trifluoacetate [37 (second peak)] | >10
[(1R,2S,4S)-4-(2-Ethyl-1H-imidazo[4,5-d]thieno[3,2-b]pyridin-1-yl)-2-hydroxycyclohexyl]acetonitrile and [(1S,2R,4R)-4-(2-ethyl-1H-imidazo[4,5-d]thieno[3,2-b]pyridin-1-yl)-2-hydroxycyclohexyl]acetonitrile [40 (first peak)] | >10

Other lines, results leading:

JAK2/JAK1 | Molecule
>10 | CC(=O)NC(C)c1nc2cnc3ccsc3c2n1[C@H]1CC[C@H](CC#N)OC1 (stereo partly drawn) [Example 69, N-(1-{1-[(3S,6R)-6-(Cyanomethyl)tetrahydro-2H-pyran-3-yl]-1H-imidazo[4,5-d]thieno[3,2-b]pyridin-2-yl}ethyl)acetamide]
>10 | CNC(C)c1nc2cnc3ccsc3c2n1[C@H]1CC[C@H](CC#N)OC1 (stereo partly drawn) [Example 70, ((2R,5S)-5-{2-[1-(Methylamino)ethyl]-1H-imidazo[4,5-d]thieno[3,2-b]pyridin-1-yl}tetrahydro-2H-pyran-2-yl)acetonitrile]
>10 | C[C@@H](O)c1nc2cnc3ccsc3c2n1[C@H]1CC[C@H](CNS(C)(=O)=O)OC1 [Example 75, N-[((2R,5S)-5-{2-[(1R)-1-Hydroxyethyl]-1H-imidazo[4,5-d]thieno[3,2-b]pyridin-1-yl}tetrahydro-2H-pyran-2-yl)methyl]methanesulfonamide]
>10 | CC(C)OC(=O)NC[C@H]1CC[C@H](n2c([C@@H](C)O)nc3cnc4ccsc4c32)CO1 [Example 76, Isopropyl [((2R,5S)-5-{2-[(1R)-1-hydroxyethyl]-1H-imidazo[4,5-d]thieno[3,2-b]pyridin-1-yl}tetrahydro-2H-pyran-2-yl)methyl]carbamate]
>10 | COC(=O)NC[C@H]1CC[C@H](n2c([C@@H](C)O)nc3cnc4ccsc4c32)CC1 [Example 78, Methyl [(trans-4-{2-[(1R)-1-hydroxyethyl]-1H-imidazo[4,5-d]thieno[3,2-b]pyridin-1-yl}cyclohexyl)methyl]carbamate]
>10 | CC(=O)NC[C@H]1CC[C@H](n2c([C@@H](C)O)nc3cnc4ccsc4c32)CC1 [Example 79, N-[(trans-4-{2-[(1R)-1-Hydroxyethyl]-1H-imidazo[4,5-d]thieno[3,2-b]pyridin-1-yl}cyclohexyl)methyl]acetamide]
>10 | C[C@@H](O)c1nc2cnc3ccsc3c2n1[C@H]1CC[C@H](CNC(=O)N(C)C)CC1 [Example 81, N′-[(trans-4-{2-[(1R)-1-Hydroxyethyl]-1H-imidazo[4,5-d]thieno[3,2-b]pyridin-1-yl}cyclohexyl)methyl]-N,N-dimethylurea]
>10 | CCOC(=O)NC[C@H]1CC[C@H](n2c([C@@H](C)O)nc3cnc4ccsc4c32)CC1 [Example 82, Ethyl [(trans-4-{2-[(1R)-1-hydroxyethyl]-1H-imidazo[4,5-d]thieno[3,2-b]pyridin-1-yl}cyclohexyl)methyl]carbamate]
>10 | CCCOC(=O)NC[C@H]1CC[C@H](n2c([C@@H](C)O)nc3cnc4ccsc4c32)CC1 [Example 83, Propyl [(trans-4-{2-[(1R)-1-hydroxyethyl]-1H-imidazo[4,5-d]thieno[3,2-b]pyridin-1-yl}cyclohexyl)methyl]carbamate]
>10 | CC(C)OC(=O)NC[C@H]1CC[C@H](n2c([C@@H](C)O)nc3cnc4ccsc4c32)CC1 [Example 84, Isopropyl [(trans-4-{2-[(1R)-1-hydroxyethyl]-1H-imidazo[4,5-d]thieno[3,2-b]pyridin-1-yl}cyclohexyl)methyl]carbamate]
>10 | C[C@@H](O)c1nc2cnc3ccsc3c2n1[C@H]1CC[C@H](CNC(=O)OC2CCOC2)CC1 (stereo partly drawn) [Example 85, Tetrahydrofuran-3-yl [(trans-4-{2-[(1R)-1-hydroxyethyl]-1H-imidazo[4,5-d]thieno[3,2-b]pyridin-1-yl}cyclohexyl)methyl]carbamate]
